Test results as given in patent US9855205B2, “Use of zinc coceth sulfate as an antibacterial agent against propionibacterium acnes” (PIERRE FABRE DERMO-COSMETIQUE, priority 2012, dated 2018).

Key:
[1] = Irritant and sensitising potential
[2] = tested on: chorio-allantoic membrane of an embryonated chicken egg; assay: Het Cam test (tolerance on the mucosa); settings: 1% solution, irritant effects within five minutes, tenth day of incubation
Protocol: Zinc coceth was tested in a 1% solution.

[3] = tested on: Propionibacterium acnes ATCC6919; assay: Evaluation of the bactericidal activity against P. acnes (log reduction over contact time); format: cell-based; settings: Zetesol Zn at 20% (5% active zinc coceth sulfate)
Protocol: The reduction over time of the log 10 of the number of germs in relation to initial number of germs (log R parameter) is evaluated.
The strain tested is Propionibacterium acnes ATCC6919.
Zetesol Zn® was tested at the concentration of 20% (i.e. 5% of active ingredient zinc coceth sulfate).
Method • placing into contact of the product to be tested with suspensions of P. acnes titrated at about 10^6 CFU/ml for 1, 5, 10 and 15 minutes. • Viable count after each duration of contact by inclusion of 1 ml of the sample in a culture agar (Columbia) • Incubation 72 hours at 36° C. in anaerobic conditions • Viable count of residual bacteria via direct counting.
Calculation of the fall in log 10:
The calculation of the fall in log 10 of the number of CFU/ml is carried out according to the formula hereinbelow: Logarithmic reduction=LOG 10(number of CFU present at TO/number of CFU remaining at Tx)
The results indicated in table 1 are the average of two independent tests (except for the duration of 10 min where only 1 test was carried out). Also see FIG. 1. […]

[4] = pH of zinc coceth sulfate; format: physicochemical

Zinc coceth sulfate [Zetesol ® Zn]
irritant and sensitising potential [1]: devoid of any irritant and sensitising potential | tolerance on the mucosa [2]: good tolerance on the mucosa | Log Reduction in 1 minute ([3]; contact 1 min, average of two tests): 0.63 log | Log Reduction in 5 minutes ([3]; contact 5 min, average of two tests): 2.06 log | Log Reduction in 10 minutes ([3]; contact 10 min, only 1 test): 3.65 log | Log Reduction in 15 minutes ([3]; contact 15 min, average of two tests): >5.04 log | pH [4]: 4.5
